Laboratory results taken from patent publication US10053417B2, “Neprilysin inhibitors” (THERAVANCE BIOPHARMA R&D IP, LLC, priority 2013, dated 2018).

Biological target: T1, human NEP (Homo sapiens, UniProt P08473)
T1 construct: purchased R&D Systems, Minneapolis, Minn; 1182-ZN
Experiment: In vitro enzyme inhibition assay, inhibitor potency at human NEP (Assay 1)
Assay type: biochemical
Settings: recombinant human NEP; fluorogenic peptide substrate 10 μM; 37° C.; values given as ranges
Description: The inhibitory activities of compounds at human and rat neprilysin (EC 3.4.24.11; NEP) and human angiotensin converting enzyme (ACE) were determined using in vitro assays as described below.
Recombinant human NEP and recombinant human ACE were obtained commercially (R&D Systems, Minneapolis, Minn., catalog numbers 1182-ZN and 929-ZN, respectively). The fluorogenic peptide substrate Mca-D-Arg-Arg-Leu-Dap-(Dnp)-OH (Medeiros et al. (1997) Braz. J. Med. Biol. Res. 30:1157-62; Anaspec, San Jose, Calif.) and Abz-Phe-Arg-Lys(Dnp)-Pro-OH (Araujo et al. (2000) Biochemistry 39:8519-8525; Bachem, Torrance, Calif.) were used in the NEP and ACE assays respectively.
The assays were performed in 384-well white opaque plates at 37° C. using the fluorogenic peptide substrates at a concentration of 10 μM in Assay Buffer (NEP: 50 mM HEPES, pH 7.5, 100 mM NaCl, 0.01% polyethylene glycol sorbitan monolaurate (Tween-20), 10 μM ZnSO4; ACE: 50 mM HEPES, pH 7.5, 100 mM NaCl, 0.01% Tween-20, 1 μM ZnSO4).
Test compounds were assayed over the range of concentrations from […] to 20 μM. Test compounds were added to the enzymes and incubated for 30 minute at 37° C. prior to initiating the reaction by the addition of substrate. Reactions were terminated after 20 minutes of incubation at 37° C. by the addition of glacial acetic acid to a final concentration of 3.6% (v/v).
Plates were read on a fluorometer with excitation and emission wavelengths set to 320 nm and 405 nm, respectively. Inhibition constants were obtained by nonlinear regression of the data using the equation (GraphPad Software, Inc., San Diego, Calif.): ν=ν0/[1+(I/K′)] where ν is the reaction rate, ν0 is the uninhibited reaction rate, I is the inhibitor concentration and K′ is the apparent inhibition constant.
Compounds of the invention were tested in this assay and found to have pKi values at human NEP as follows.

T1 sequence (P08473 52-750 limits assumed): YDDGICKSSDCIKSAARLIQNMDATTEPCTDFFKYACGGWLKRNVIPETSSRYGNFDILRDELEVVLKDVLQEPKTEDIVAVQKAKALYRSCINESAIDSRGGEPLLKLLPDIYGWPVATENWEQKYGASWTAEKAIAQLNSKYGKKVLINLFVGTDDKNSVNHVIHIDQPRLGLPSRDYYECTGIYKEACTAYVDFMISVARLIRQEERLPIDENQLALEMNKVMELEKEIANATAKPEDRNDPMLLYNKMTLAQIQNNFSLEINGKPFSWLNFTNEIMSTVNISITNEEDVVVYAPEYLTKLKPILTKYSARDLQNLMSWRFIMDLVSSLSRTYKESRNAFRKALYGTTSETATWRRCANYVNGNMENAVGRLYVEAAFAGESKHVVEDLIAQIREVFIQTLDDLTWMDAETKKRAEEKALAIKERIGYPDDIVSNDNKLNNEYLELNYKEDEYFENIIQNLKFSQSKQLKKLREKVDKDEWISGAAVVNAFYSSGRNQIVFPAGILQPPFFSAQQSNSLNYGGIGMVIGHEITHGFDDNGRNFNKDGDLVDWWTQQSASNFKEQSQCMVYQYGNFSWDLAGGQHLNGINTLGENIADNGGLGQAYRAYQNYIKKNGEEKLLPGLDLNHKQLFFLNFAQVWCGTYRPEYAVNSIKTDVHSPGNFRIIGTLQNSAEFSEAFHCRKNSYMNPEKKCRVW

In the case of Cc1ccncc1NC(=O)C(=O)N[C@H](Cc1ccc(-c2cccc(Cl)c2)cc1)C[C@@H](O)C(=O)O [Example 4-4, (2R,4R)-5-(3′-Chlorobiphenyl-4-yl)-2-hydroxy-4-[(4-methylpyridin-3-ylaminooxalyl)amino]pentanoic acid], the Ki is reported as 1 to 10 nM.
O=C(NNc1cccnc1)C(=O)N[C@H](Cc1ccc(-c2cccc(Cl)c2)cc1)C[C@@H](O)C(=O)O [Example 6-4, (2R,4R)-5-(3′-Chlorobiphenyl-4-yl)-2-hydroxy-4-[(N′-pyridin-3-yl-hydrazino-oxalyl)-amino]pentanoic acid] was tested, and the Ki was 1 to 10 nM.
With C[C@@H]1CO[C@@H](C)CN1C(=O)C(=O)N[C@H](Cc1ccc(-c2cccc(Cl)c2)cc1)C[C@@H](O)C(=O)O [Example 4-46, (2R,4R)-5-(3′-Chlorobiphenyl-4-yl)-4-[2-((2S,5R)-2,5-dimethylmorpholin-4-yl)-2-oxo-acetylamino]-2-hydroxypentanoic acid] the Ki was 1 to 10 nM.
CS(=O)(=O)C1CCN(C(=O)C(=O)N[C@H](Cc2ccc(-c3cccc(Cl)c3)cc2)C[C@@H](O)C(=O)O)C1 (stereo partly drawn) [Example 4-15, (2R,4R)-5-(3′-Chlorobiphenyl-4-yl)-2-hydroxy-4-[2-(3-methanesulfonyl-pyrrolidin-1-yl)-2-oxo-acetylamino]pentanoic acid] showed a Ki of 1 to 10 nM.
For CC(C)CNNC(=O)C(=O)N[C@H](Cc1ccc(-c2cccc(Cl)c2)cc1)C[C@@H](O)C(=O)O [Example 6-2, (2R,4R)-5-(3′-Chlorobiphenyl-4-yl)-2-hydroxy-4-[(N′-isobutylhydrazinooxalyl)-amino]pentanoic acid], the Ki was 10 to 31.6 nM.
In the case of O=C(Nc1ccncc1)C(=O)N[C@H](Cc1ccc(-c2cccc(Cl)c2)cc1)C[C@@H](O)C(=O)O [Example 4-3, (2R,4R)-5-(3′-Chlorobiphenyl-4-yl)-2-hydroxy-4-[(pyridin-4-ylaminooxalyl)-amino]-pentanoic acid], the Ki is reported as 10 to 31.6 nM.
Work on O=C(NNc1ccc(Cl)cc1)C(=O)N[C@H](Cc1ccc(-c2cccc(Cl)c2)cc1)C[C@@H](O)C(=O)O [Example 6-13, (2R,4R)-5-(3′-Chlorobiphenyl-4-yl)-4-{[N′-(4-chloro-phenyl)-hydrazinooxalyl]-amino}-2-hydroxypentanoic acid] yielded a Ki of 1 to 10 nM.
Cc1ccccc1NNC(=O)C(=O)N[C@H](Cc1ccc(-c2cccc(Cl)c2)cc1)C[C@@H](O)C(=O)O [Example 6-10, (2R,4R)-5-(3′-Chlorobiphenyl-4-yl)-2-hydroxy-4-[(N′-o-tolyl-hydrazinooxalyl)-amino]-pentanoic acid] gave a Ki of 1 to 10 nM.
In the case of C[C@@H]1CN(C(=O)C(=O)N[C@H](Cc2ccc(-c3cccc(Cl)c3)cc2)C[C@@H](O)C(=O)O)C[C@H](C)O1 [Example 4-45, (2R,4R)-5-(3′-Chlorobiphenyl-4-yl)-4-[2-((2R,6S)-2,6-dimethylmorpholin-4-yl)-2-oxo-acetylamino]-2-hydroxypentanoic acid], the Ki is reported as 1 to 10 nM.
With COCC1CCN(C(=O)C(=O)N[C@H](Cc2ccc(-c3cccc(Cl)c3)cc2)C[C@@H](O)C(=O)O)CC1 [Example 4-19, (2R,4R)-5-(3′-Chlorobiphenyl-4-yl)-2-hydroxy-4-[2-(4-methoxymethyl-piperidin-1-yl)-2-oxo-acetylamino]pentanoic acid] the Ki was 10 to 31.6 nM.
With O=C(N[C@H](Cc1ccc(-c2cccc(Cl)c2)cc1)C[C@@H](O)C(=O)O)C(=O)N(O)c1ccccc1 [Example 4-9, (2R,4R)-5-(3′-Chlorobiphenyl-4-yl)-2-hydroxy-4-[(hydroxyphenylaminooxalyl)-amino]pentanoic acid] the pKi was 8.0-9.0.
O=C(N[C@H](Cc1ccc(-c2cccc(Cl)c2)cc1)C[C@@H](O)C(=O)O)C(=O)NN1CCOCC1 [Example 4-8, (2R,4R)-5-(3′-Chlorobiphenyl-4-yl)-2-hydroxy-4-[(morpholin-4-ylaminooxalyl)-amino]pentanoic acid] gave a Ki of 10 to 31.6 nM.
With NC(=O)C1CCN(C(=O)C(=O)N[C@H](Cc2ccc(-c3cccc(Cl)c3)cc2)C[C@@H](O)C(=O)O)CC1 [Example 4-29, (2R,4R)-4-[2-(4-Carbamoyl-piperidin-1-yl)-2-oxo-acetylamino]-5-(3′-chlorobiphenyl-4-yl)-2-hydroxypentanoic acid] the Ki was 10 to 31.6 nM.
C[C@@](CO)(C[C@@H](Cc1ccc(-c2cccc(Cl)c2)cc1)NC(=O)COCc1ccccc1)C(=O)O [Example 12, (2S,4R)-4-(2-Benzyloxyacetylamino)-5-(3′-chlorobiphenyl-4-yl)-2-hydroxymethyl-2-methyl-pentanoic acid] was tested, and the Ki was 10 to 31.6 nM.
For O=C(NNC1=NCCN1)C(=O)N[C@H](Cc1ccc(-c2cccc(Cl)c2)cc1)C[C@@H](O)C(=O)O [Example 6-6, (2R,4R)-5-(3′-Chlorobiphenyl-4-yl)-4-{[N′-(4,5-dihydro-1H-imidazol-2-yl)-hydrazinooxalyl]-amino}-2-hydroxypentanoic acid], the Ki was 10 to 31.6 nM.
In the case of O=C(NNc1ccc(F)cc1)C(=O)N[C@H](Cc1ccc(-c2cccc(Cl)c2)cc1)C[C@@H](O)C(=O)O [Example 6-12, (2R,4R)-5-(3′-Chlorobiphenyl-4-yl)-4-{[N′-(4-fluoro-phenyl)-hydrazinooxalyl]-amino}-2-hydroxypentanoic acid], the Ki is reported as 1 to 10 nM.
Work on CCC(=O)C(=O)N[C@H](Cc1ccc(-c2cccc(Cl)c2)cc1)C[C@@H](O)C(=O)O [Example 1, (2R,4R)-5-(3′-Chlorobiphenyl-4-yl)-2-hydroxy-4-(2-oxobutyrylamino)pentanoic Acid] yielded a Ki of 1 to 10 nM.
O=C(NNc1cccc(Cl)c1)C(=O)N[C@H](Cc1ccc(-c2cccc(Cl)c2)cc1)C[C@@H](O)C(=O)O [Example 6-9, (2R,4R)-5-(3′-Chlorobiphenyl-4-yl)-4-{[N′-(3-chloro-phenyl)-hydrazinooxalyl]-amino}-2-hydroxypentanoic acid] was tested, and the Ki was 1 to 10 nM.
For O=C(NNC(=O)c1cccnc1)C(=O)N[C@H](Cc1ccc(-c2cccc(Cl)c2)cc1)C[C@@H](O)C(=O)O [Example 8-3, (2R,4R)-5-(3′-Chlorobiphenyl-4-yl)-2-hydroxy-4-{2-oxo-2-[N′-(pyridine-3-carbonyl)-hydrazino]acetylamino}pentanoic acid], the Ki was 1 to 10 nM.
CN(O)C(=O)C(=O)N[C@H](Cc1ccc(-c2cccc(Cl)c2)cc1)C[C@@H](O)C(=O)O [Example 4-10, (2R,4R)-5-(3′-Chlorobiphenyl-4-yl)-2-hydroxy-4-[(hydroxymethylaminooxalyl)-amino]pentanoic acid] was tested, and the pKi was 7.5-8.0.
COCC(=O)N[C@H](Cc1ccc(-c2cccc(Cl)c2)cc1)C[C@@](C)(CO)C(=O)O [Example 11, (2S,4R)-5-(3′-Chlorobiphenyl-4-yl)-2-hydroxymethyl-4-(2-methoxy-acetylamino)-2-methylpentanoic Acid] showed a Ki of 1 to 10 nM.
O=C(N[C@H](Cc1ccc(-c2cccc(Cl)c2)cc1)C[C@@H](O)C(=O)O)C(=O)N1CCC[C@H](CO)C1 [Example 4-33, (2R,4R)-5-(3′-Chlorobiphenyl-4-yl)-2-hydroxy-4-[2-((S)-3-hydroxymethyl-piperidin-1-yl)-2-oxo-acetylamino]pentanoic acid] gave a Ki of 1 to 10 nM.
Work on O=C(N[C@H](Cc1ccc(-c2cccc(Cl)c2)cc1)C[C@@H](O)C(=O)O)C(=O)N1CCC(CCO)CC1 [Example 4-24, (2R,4R)-5-(3′-Chlorobiphenyl-4-yl)-2-hydroxy-4-{2-[4-(2-hydroxyethyl)-piperidin-1-yl]-2-oxo-acetylamino}pentanoic acid] yielded a Ki of 1 to 10 nM.
